In PubChem BioAssay (NCI):
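Each compound was tested at five concentrations against cells in 96-well plates for 48 hours. TGI: concentration producing complete growth inhibition.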

How the values were obtained:
Experiment in all cases: DTP human tumour cell line panel, 48 h
[1] = system: A549 NSCLC
[2] = system: BT-549 breast
[3] = system: CAKI-1 renal
[4] = system: DU-145 prostate
[5] = system: NCI-H460 lung
[6] = system: NCI-H522 lung
[7] = system: OVCAR-3 ovarian
[8] = system: OVCAR-5 ovarian
[9] = system: SK-MEL-2 melanoma
[10] = system: SK-OV-3 ovarian
[11] = system: TK-10 renal
[12] = system: UO-31 renal
[13] = system: MDA-MB-435
[14] = system: SK-MEL-28 melanoma
[15] = system: HOP-92 NSCLC

Compound | TGI [1] [µM] | TGI [2] [µM] | TGI [3] [µM] | TGI [4] [µM] | TGI [5] [µM] | TGI [6] [µM] | TGI [7] [µM] | TGI [8] [µM] | TGI [9] [µM] | TGI [10] [µM] | TGI [11] [µM] | TGI [12] [µM] | TGI [13] [µM] | TGI [14] [µM] | TGI [15] [µM]
O=C(OCC(Cl)(Cl)Cl)N1CC[C@@H](C2CCCCC2)C1 | > 100 | > 100 | 76.5 | > 100 | 43.8 | 43.1 | 32.2 | 50.6 | 33.1 | > 100 | > 100 | 40.2 | – | – | –
Clc1cc2nnn(C3CCCCO3)c2cc1Cl (configuration not stated) | > 100 | > 100 | > 100 | > 100 | > 100 | > 100 | > 100 | > 100 | > 100 | > 100 | > 100 | > 100 | > 100 | – | –
COC(=O)CCN1CCN(CCO)CC1C (configuration not stated) | > 10 | – | > 10 | > 10 | > 10 | > 10 | > 10 | – | > 10 | > 10 | > 10 | > 10 | > 10 | > 10 | –
COc1cc(CCC(=O)O)c2cc3ccccc3cc2c1O | 52.6 | 30.9 | 33.8 | – | 47.2 | 45.1 | 51.7 | 45.9 | 36.6 | > 100 | 75.1 | 35.7 | 34.4 | 48.4 | 88.3
c1ccc(N=C2C(=Nc3ccccc3)N(C3CCCCC3)C(=NC3CCCCC3)N2c2ccccc2)cc1 | > 100 | > 100 | – | – | > 100 | – | – | > 100 | > 100 | – | > 100 | > 100 | – | > 100 | > 100
Cc1ccc(S(=O)(=O)N/N=C2/C3C(CC2(C)C)C2(C)CCCC3(C)C2O)cc1 (configuration not stated) | 63.7 | 31 | > 100 | > 100 | 37.7 | 44.5 | > 100 | – | 45.8 | 44.8 | > 100 | > 100 | – | 40.4 | 33.3
CC1(Br)S(=O)(=O)OCCOS1(=O)=O | > 100 | – | – | – | > 100 | > 100 | > 100 | > 100 | > 100 | > 100 | > 100 | > 100 | – | > 100 | > 100
CSC1=N/C(=C\c2ccccc2)C(=O)N1CN1CCOCC1 | > 100 | – | – | > 100 | – | > 100 | > 100 | > 100 | > 100 | > 100 | > 100 | > 100 | > 100 | > 100 | > 100
C=CC(Br)(CBr)CCC(Br)C(C)(C)Br (configuration not stated) | 29.8 | – | 37.4 | – | 23.4 | 30.1 | – | 33.2 | 29.7 | 35.7 | 30.3 | 28.8 | – | 29.8 | 29.9
N#Cc1nc(-c2ccccc2O)oc1N | > 100 | – | > 100 | > 100 | – | – | – | > 100 | > 100 | > 100 | > 100 | – | > 100 | > 100 | > 100
